Laboratory results from US10836758B2, “Acyl sulfonamide NaV1.7 inhibitors” (BRISTOL-MYERS SQUIBB COMPANY, priority 2016, dated 2020).

Biological target: NaV1.7 (Homo sapiens (Human), UniProt Q15858)
Assay: NaV1.7 IC50 of Table 1 (IonWorks Barracuda population patch clamp or ligand binding assay; table does not say which)
Format: cell-based
Settings: HEK 293 cells expressing NaV1.7
Description: Ion Works Barracuda population patch clamp (PPC). PPC measurements were performed using an IonWorks Barracuda instrument (Molecular Devices Corporation, Union City, Calif.) using either PatchPlate™ PPC substrates (Molecular Devices Corporation) with 64 apertures per well. The ability to average currents from 64 recordings from each well greatly improves data consistency and recording success rates in the measurement of NaV1.7 mediated ionic currents. Calculated leak current was digitally subtracted from the total cell NaV1.7 current for each sample point acquired.
NaV1.7 currents were elicited by a voltage clamp protocol designed to bias the NaV1.7 channels to their inactivated state as follows. […] This was followed by a relatively brief hyperpolarization to −100 mv for 300 ms, then a 20 msec test pulse to −20 mV to elicit the NaV1.7 current used to measure the pharmacology of all test compounds. Compounds were incubated for 600 sec between the pre- and post-compound reads. […] The same solutions were used to record NaV1.5 currents, with the following voltage clamp protocol. NaV1.5 currents were elicited by a voltage clamp protocol designed to bias the NaV1.5 channels to their inactivated state as follows. […] This was followed by a relatively brief hyperpolarization to −100 mv for 30 ms, then a 20 msec test pulse to −10 mV to elicit the NaV1.5 current used to measure the pharmacology of all test compounds.
HEK 293 cells expressing NaV1.7 and NaV1.5 channels, were used (Essen Biosciences, Ann Arbor, Mich.). […] Cells were grown to 70% to 90% confluence in a flask and removed from the incubator (37° C., 5% CO2) 1 to 3 days after plating. Growth medium was aspirated from the culture flasks. […] Next a total of 2 mL TrypLE (Gibco) solution was added, and the flasks containing cells were sat for 3 min at RT, after which, the cells became visibly rounded and were easily dislodged from the bottom of the flask with a few brief taps on a solid surface. A total of 8 mL of media was added to the flask to inactivate the TrypLE, and the mixture was centrifuged at 910 rpm for 4 min. The cell supernatant was decanted, and the cell pellets were resuspended in 5-6 mL of external solution followed by gentle triturations using a 10 ml pipette, and transferred to a 15 ml conical tube and immediately brought to the IW Barracuda instrument.
Peak membrane currents were analyzed with IW Barracuda software and exported to Excel for further analysis. Concentration response curve fitting was performed with BMS in-house software. IC50 values were obtained by fits of the Hill equation to the average percent inhibition data plotted versus compound concentration. […] Results are reported in Table 1 (NaV1.7 Barra IC50 in nM and NaV1.5 Barra IC50 in nM).
hNaV1.7 binding affinities were determined with a filtration binding assay using purified membranes from HEK293 cells stably expressing hNaV1.7. HEK293 cells from a 10-stack cell culture flask (approximately 10^10 cells) were dissociated, frozen, and stored at −80° C. To prepare membranes, the frozen cell pellet was thawed and suspended in 6 ml hypotonic lysis buffer (50 mM HEPES, 0.1% mammalian protease inhibitor cocktail). 1 ml of resuspended cells was added to an additional 6 ml of lysis buffer and homogenized with 30 strokes of a tight pestle in a glass homogenizer. Homogenate was centrifuged at 1000×g for 10 minutes at 4° C. and the resulting supernatant was further centrifuged at 38,500×g for 60 minutes at 4° C. The resulting pellet was resuspended in binding buffer (50 mM HEPES, 130 mM NaCl, 5.4 mM KCl, 0.8 mM MgCl2, 5 mM glucose, pH 7.4) and needle homogenized with a 25 gauge needle. Protein concentration was determined with a BCA protein assay. Purified membranes were aliquoted, flash frozen in an ethyl alcohol dry ice bath, and stored at −80° C.

NaV1.7, sequence (Q15858 whole entry): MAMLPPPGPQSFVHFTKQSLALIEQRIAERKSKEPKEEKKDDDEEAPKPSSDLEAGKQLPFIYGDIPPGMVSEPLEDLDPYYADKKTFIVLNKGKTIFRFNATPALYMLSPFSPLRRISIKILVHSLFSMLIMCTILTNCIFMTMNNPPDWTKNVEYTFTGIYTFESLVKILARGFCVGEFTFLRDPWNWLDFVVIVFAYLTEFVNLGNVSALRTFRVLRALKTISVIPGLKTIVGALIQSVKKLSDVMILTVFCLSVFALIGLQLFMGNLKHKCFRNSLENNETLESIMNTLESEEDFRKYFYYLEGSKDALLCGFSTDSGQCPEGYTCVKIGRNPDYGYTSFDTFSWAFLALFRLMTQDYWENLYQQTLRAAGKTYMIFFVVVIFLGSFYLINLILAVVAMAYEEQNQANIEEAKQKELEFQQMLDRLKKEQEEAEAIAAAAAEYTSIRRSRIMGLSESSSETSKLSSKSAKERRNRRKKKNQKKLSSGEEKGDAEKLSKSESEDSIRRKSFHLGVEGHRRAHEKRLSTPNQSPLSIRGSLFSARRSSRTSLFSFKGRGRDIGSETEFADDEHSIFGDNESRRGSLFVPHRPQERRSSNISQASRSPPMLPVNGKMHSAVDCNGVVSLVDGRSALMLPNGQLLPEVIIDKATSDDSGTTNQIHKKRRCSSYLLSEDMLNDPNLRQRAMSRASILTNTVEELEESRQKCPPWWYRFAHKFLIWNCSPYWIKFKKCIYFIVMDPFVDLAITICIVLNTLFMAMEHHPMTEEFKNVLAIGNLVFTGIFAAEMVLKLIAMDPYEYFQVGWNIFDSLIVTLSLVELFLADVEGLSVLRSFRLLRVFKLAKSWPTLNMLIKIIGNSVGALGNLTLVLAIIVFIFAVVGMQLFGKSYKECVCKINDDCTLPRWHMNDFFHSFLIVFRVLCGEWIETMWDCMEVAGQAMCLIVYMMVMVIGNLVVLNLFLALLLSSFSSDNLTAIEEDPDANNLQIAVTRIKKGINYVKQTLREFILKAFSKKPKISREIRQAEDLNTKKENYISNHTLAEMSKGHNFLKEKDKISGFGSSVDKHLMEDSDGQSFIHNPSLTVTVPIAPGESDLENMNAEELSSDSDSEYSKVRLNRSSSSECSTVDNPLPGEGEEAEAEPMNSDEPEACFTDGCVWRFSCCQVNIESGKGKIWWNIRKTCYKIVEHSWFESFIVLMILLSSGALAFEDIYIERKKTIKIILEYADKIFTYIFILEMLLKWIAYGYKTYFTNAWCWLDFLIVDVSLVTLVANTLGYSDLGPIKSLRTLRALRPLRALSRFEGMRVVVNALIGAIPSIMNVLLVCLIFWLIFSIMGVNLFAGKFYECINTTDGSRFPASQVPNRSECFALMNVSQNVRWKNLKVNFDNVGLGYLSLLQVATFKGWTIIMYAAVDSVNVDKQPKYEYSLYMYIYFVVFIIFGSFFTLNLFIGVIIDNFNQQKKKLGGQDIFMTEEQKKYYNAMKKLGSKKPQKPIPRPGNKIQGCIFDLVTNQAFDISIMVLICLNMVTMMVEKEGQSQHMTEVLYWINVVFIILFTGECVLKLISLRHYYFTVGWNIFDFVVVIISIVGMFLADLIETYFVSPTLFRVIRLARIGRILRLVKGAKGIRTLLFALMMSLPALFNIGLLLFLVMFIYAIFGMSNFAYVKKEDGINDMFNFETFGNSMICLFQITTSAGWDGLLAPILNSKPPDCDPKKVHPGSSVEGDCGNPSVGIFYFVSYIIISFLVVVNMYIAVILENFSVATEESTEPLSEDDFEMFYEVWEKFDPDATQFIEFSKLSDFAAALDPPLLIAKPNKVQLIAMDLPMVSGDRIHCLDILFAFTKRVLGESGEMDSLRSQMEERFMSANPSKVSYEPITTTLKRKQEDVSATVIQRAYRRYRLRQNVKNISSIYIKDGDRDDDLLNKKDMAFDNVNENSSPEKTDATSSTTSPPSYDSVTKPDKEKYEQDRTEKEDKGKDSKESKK

Structure (SMILES)	IC50 [nM]
CN1CCN(C2CCC(CNc3cc(F)c(S(=O)(=O)Nc4nccs4)cc3Cl)CC2)CC1 (stereo not shown) [Example 27, 5-Chloro-2-fluoro-4-(((4-(4-methylpiperazin-1-yl)cyclohexyl)methyl)amino)-N-(thiazol-2-yl)benzenesulfonamide]	40
CN1CCC(CCNc2cc(F)c(S(=O)(=O)Nc3nccs3)cc2Cl)CC1 [Example 5, 5-Chloro-2-fluoro-4-((2-(1-methylpiperidin-4-yl)ethyl)amino)-N-(thiazol-2-yl)benzenesulfonamide]	70
O=S(=O)(Nc1nccs1)c1cc(Cl)c(NCC2CNCCO2)cc1F (stereo not shown) [Example 6, 5-Chloro-2-fluoro-4-((morpholin-2-ylmethyl)amino)-N-(thiazol-2-yl)benzenesulfonamide]	67
O=S(=O)(Nc1nccs1)c1cc(Cl)c(NCC2(CN3CCOCC3)CC2)cc1F [Example 8, 5-Chloro-2-fluoro-4-(((1-(morpholinomethyl)cyclopropyl)methyl)amino)-N-(thiazol-2-yl)benzenesulfonamide]	181
O=S(=O)(Nc1nccs1)c1cc(Cl)c(NCC2CNC2)cc1F [Example 15, 4-((Azetidin-3-ylmethyl)amino)-5-chloro-2-fluoro-N-(thiazol-2-yl)benzenesulfonamide]	394
CC1CC(C)(C)C(CNc2cc(F)c(S(=O)(=O)Nc3nccs3)cc2Cl)C1N (stereo not shown) [Example 30, 4-(((5-Amino-2,2,4-trimethylcyclopentyl)methyl)amino)-5-chloro-2-fluoro-N-(thiazol-2-yl)benzenesulfonamide]	12
NC1(CCNc2cc(F)c(S(=O)(=O)Nc3nccs3)cc2Cl)CCCCC1 [Example 29, 4-((2-(1-Aminocyclohexyl)ethyl)amino)-5-chloro-2-fluoro-N-(thiazol-2-yl)benzenesulfonamide]	74
NC1CCCC(Nc2cc(F)c(S(=O)(=O)Nc3nccs3)cc2Cl)C1 (stereo not shown) [Example 28, 4-((3-Aminocyclohexyl)amino)-5-chloro-2-fluoro-N-(thiazol-2-yl)benzenesulfonamide]	27
CNC1CCC(CNc2cc(F)c(S(=O)(=O)Nc3nccs3)cc2Cl)CC1 (stereo not shown) [Example 23, 5-Chloro-4-(((4-(methylamino)cyclohexyl)methyl)amino)-2-fluoro-N-(thiazol-2-yl)benzenesulfonamide]	16
NCC1CCCC(CNc2cc(F)c(S(=O)(=O)Nc3nccs3)cc2Cl)C1 (stereo not shown) [Example 32, 4-(((3-(Aminomethyl)cyclohexyl)methyl)amino)-5-chloro-2-fluoro-N-(thiazol-2-yl)benzenesulfonamide]	28
NC1CCCC1CNc1cc(F)c(S(=O)(=O)Nc2nccs2)cc1Cl (stereo not shown) [Example 31, 4-(((2-Aminocyclopentyl)methyl)amino)-5-chloro-2-fluoro-N-(thiazol-2-yl)benzenesulfonamide]	12
O=S(=O)(Nc1nccs1)c1cc(Cl)c(NCCC2CCCNC2)cc1F (stereo not shown) [Example 2, 5-Chloro-2-fluoro-4-((2-(piperidin-3-yl)ethyl)amino)-N-(thiazol-2-yl)benzenesulfonamide]	12
N[C@H]1CC[C@H](CNc2cc(F)c(S(=O)(=O)Nc3nccs3)cc2Cl)CC1 [Example 21, 4-((((1r,4r)-4-Aminocyclohexyl)methyl)amino)-5-chloro-2-fluoro-N-(thiazol-2-yl)benzenesulfonamide]	398

Second part, the compound after the results:

IC50 [nM]	Structure (SMILES)
68	CNC1CCC(COc2cc(F)c(S(=O)(=O)Nc3ncns3)cc2F)(Cc2ccc(Cl)c(F)c2)CC1 (stereo not shown) [Example 63, 4-((1-(4-Chloro-3-fluorobenzyl)-4-(methylamino)cyclohexyl)methoxy)-2,5-difluoro-N-(1,2,4-thiadiazol-5-yl)benzenesulfonamide]
124	O=S(=O)(Nc1ncns1)c1cc(F)c(OCCC2(c3ccc(Cl)cc3)CCNCC2)cc1F [Example 44, 4-(2-(4-(4-Chlorophenyl)piperidin-4-yl)ethoxy)-2,5-difluoro-N-(1,2,4-thiadiazol-5-yl)benzenesulfonamide]
286	CN1C(C)(C)CC(Nc2cc(F)c(S(=O)(=O)Nc3nccs3)cc2Cl)CC1(C)C [Example 42, 5-Chloro-2-fluoro-4-((1,2,2,6,6-pentamethylpiperidin-4-yl)amino)-N-(thiazol-2-yl)benzenesulfonamide]
39	O=S(=O)(Nc1ncns1)c1cc(Cl)c(OCCC2(c3ccc(Cl)cc3)CCNCC2)cc1F [Example 45, 5-Chloro-4-(2-(4-(4-chlorophenyl)piperidin-4-yl)ethoxy)-2-fluoro-N-(1,2,4-thiadiazol-5-yl)benzenesulfonamide]
15	NC1CCC(CCOc2cc(F)c(S(=O)(=O)Nc3ncns3)cc2F)(c2ccccc2)CC1 (single isomer, unassigned) [Example 49, 4-(2-(4-amino-1-phenylcyclohexyl)ethoxy)-2,5-difluoro-N-(1,2,4-thiadiazol-5-yl)benzenesulfonamide]
55	NC1CCC(COc2cc(F)c(S(=O)(=O)Nc3ncns3)cc2F)(Cc2ccc(Cl)c(F)c2)CC1 (single isomer, unassigned) [Example 62, 4-((4-amino-1-(4-chloro-3-fluorobenzyl)cyclohexyl)methoxy)-2,5-difluoro-N-(1,2,4-thiadiazol-5-yl)benzenesulfonamide]
98	O=S(=O)(Nc1nccs1)c1cc(Cl)c(NC2CCC3CNCC32)cc1F (stereo not shown) [Example 65, 5-chloro-2-fluoro-4-((octahydrocyclopenta[c]pyrrol-4-yl)amino)-N-(thiazol-2-yl)benzenesulfonamide]
110	O=S(=O)(Nc1ncns1)c1cc(F)c(OCCC2(c3ccc(Cl)c(F)c3)CCNCC2)cc1F [Example 46, 4-(2-(4-(4-Chloro-3-fluorophenyl)piperidin-4-yl)ethoxy)-2,5-difluoro-N-(1,2,4-thiadiazol-5-yl)benzenesulfonamide]
272	O=S(=O)(Nc1nccs1)c1cc(Cl)c(NC[C@@H]2CCCNC2)cc1F [Example 43, (R)-5-Chloro-2-fluoro-4-((piperidin-3-ylmethyl)amino)-N-(thiazol-2-yl)benzenesulfonamide]
117	O=S(=O)(Nc1ncns1)c1cc(F)c(OCCC2(c3ccccc3)CCC(O)CC2)cc1F (stereo not shown) [Example 48, 2,5-Difluoro-4-(2-(4-hydroxy-1-phenylcyclohexyl)ethoxy)-N-(1,2,4-thiadiazol-5-yl)benzenesulfonamide]
101	O=S(=O)(Nc1nccs1)c1cc(Cl)c(NCCC2(O)CCCC2)cc1F [Example 35, 5-Chloro-2-fluoro-4-((2-(1-hydroxycyclopentyl)ethyl)amino)-N-(thiazol-2-yl)benzenesulfonamide]
267	O=S(=O)(Nc1nccs1)c1cc(Cl)c(N2CCC3CCNCC3C2)cc1F (stereo not shown) [Example 67, 5-chloro-2-fluoro-4-(octahydro-2,7-naphthyridin-2(1H)-yl)-N-(thiazol-2-yl)benzenesulfonamide]
568	COCC1CCN(c2cc(F)c(S(=O)(=O)Nc3nccs3)cc2Cl)C1 (stereo not shown) [Example 69, 5-chloro-2-fluoro-4-(3-(methoxymethyl)pyrrolidin-1-yl)-N-(thiazol-2-yl)benzenesulfonamide]
33	O=S(=O)(Nc1ncns1)c1cc(Cl)c(OCCC2(c3ccc(Cl)c(F)c3)CCNCC2)cc1F [Example 47, 5-Chloro-4-(2-(4-(4-chloro-3-fluorophenyl)piperidin-4-yl)ethoxy)-2-fluoro-N-(1,2,4-thiadiazol-5-yl)benzenesulfonamide]
138	COCCN1CCCC1CNc1cc(F)c(S(=O)(=O)Nc2nccs2)cc1Cl (stereo not shown) [Example 68, 5-chloro-2-fluoro-4-(((1-(2-methoxyethyl)pyrrolidin-2-yl)methyl)amino)-N-(thiazol-2-yl)benzenesulfonamide]
